Assays:
Tie2 = experiment: Western blot of MEC lysates, Ang1/2 signaling: Tie2 phosphorylation; type: cell-based, human
Protocol: (§1) To investigate the effects of the integrin inhibitor AXT107 on Tie2 signaling, confluent monolayers of microvascular endothelial cells (MECs) on fibronectin-coated dishes were treated with various concentrations of AXT107 followed by exposure to the Tie2 ligands Ang1 or Ang2.
Human dermal microvascular endothelial cells (Lonza) were maintained at 37° C. and 5% CO2 in EBM-2MV medium (Lonza) and used between passages two through seven. Where applicable, cells were serum starved in EBM-2 medium (Lonza) with no supplements. For FITC-Dextran permeability assays phenol red-free media were used to avoid auto-fluorescence. AXT107 were manufactured at New England Peptide by […], lyophilized, and dissolved in 100% DMSO.
(§2) For Ang1/2 signaling investigations, cell culture dishes (10 cm diameter) were coated with 5 μg/ml fibronectin (FN1; Sigma-Aldrich, St. Louis, Mo.) for two hours at 37° C. The FN1 solution was then removed by aspiration and 5×10^6 microvascular endothelial cells (MECs; Lonza, Walkersville, Md.) were plated in EGM-2MV media (Lonza) and cultured for forty-eight hours at 37° C. The cells were then serum starved for sixteen hours in serum-free EGM-2 base media (Lonza). AXT107 (0-100 μM, as indicated) was subsequently added to each culture and incubated for seventy-five minutes at 37° C. The cultures were then treated with 1 mM sodium vanadate (New England Biolabs, Ipswich, Mass.) for fifteen minutes to enhance the phospho-Tie2 signal followed by stimulation with 200 ng/ml angiopoietin (R&D Systems, Minneapolis, Minn.) for an additional fifteen minutes. The cells were then transferred to ice, washed twice with ice cold Dulbecco's phosphate-buffered saline (dPBS) containing Ca^2+ and Mg^2+, and collected by scraping in 500 μl of 1× Blue Loading Buffer (Cell Signaling, Danvers, Mass.). Lysate samples were then sonicated, boiled, and resolved by SDS-PAGE. Specific proteins were identified by Western blot, using the following primary antibodies: Cell Signaling—phospho-Tie2 (Y992) (Cat #: 4221), Tie2 (Cat #: 7403), phospho-Stat3 (Y705) (Cat #: 4113), Stat3 (Cat #: 4904), phospho-Akt (S473) (Cat #: 4058), Akt (Cat #: 9272), phospho-p44/42 MAPK (T202/Y204) (Cat #: 4370), p44/42 MAPK (Cat #: 4695); BD Transduction Laboratories—β1 integrin (Cat #: 610467); Millipore—α5 integrin (Cat #: AB1928) and detected with HRP-conjugated goat anti-rabbit and sheep anti-mouse secondary antibodies (GE healthcare).

VE-cadherin = experiment: Western blot of VE-Cadherin from MEC monolayers; type: cell-based, human; settings: three hours of AXT107 and Ang2 treatment
Protocol: The jaggedness of these junctions is related to the structure of actin within the cell.
as §2, with “AXT107 (0-100 μM, as indicated) was subsequently added to each culture and incubated for seventy-five minutes at 37° C. The cultures were then treated with 1 mM sodium vanadate (New England Biolabs, Ipswich, Mass.) for fifteen minutes to enhance the phospho-Tie2 signal followed by stimulation with 200 ng/ml angiopoietin (R&D Systems, Minneapolis, Minn.) for an additional fifteen minutes.” left out, “Lysate samples were then sonicated, boiled, and resolved by SDS-PAGE.” left out

[1] = Self-assembly of peptide in media; type: physicochemical; settings: added to media
STAT3 = experiment: Western blot of MEC lysates: STAT3 phosphorylation; type: cell-based, human; settings: Ang2 and AXT107 treatment
Protocol: as §1
Human dermal microvascular endothelial cells (Lonza) were maintained at 37° C. and 5% CO2 in EBM-2MV medium (Lonza) and used between passages two through seven. Where applicable, cells were serum starved in EBM-2 medium (Lonza) with no supplements. For FITC-Dextran permeability assays phenol red-free media were used to avoid auto-fluorescence. […]
For Ang1/2 signaling investigations, cell culture dishes (10 cm diameter) were coated with 5 μg/ml fibronectin (FN1; Sigma-Aldrich, St. Louis, Mo.) for two hours at 37° C. […] Specific proteins were identified by Western blot, using the following primary antibodies: Cell Signaling—phospho-Tie2 (Y992) (Cat #: 4221), Tie2 (Cat #: 7403), phospho-Stat3 (Y705) (Cat #: 4113), Stat3 (Cat #: 4904), phospho-Akt (S473) (Cat #: 4058), Akt (Cat #: 9272), phospho-p44/42 MAPK (T202/Y204) (Cat #: 4370), p44/42 MAPK (Cat #: 4695); BD Transduction Laboratories—β1 integrin (Cat #: 610467); Millipore—α5 integrin (Cat #: AB1928) and detected with HRP-conjugated goat anti-rabbit and sheep anti-mouse secondary antibodies (GE healthcare).

Sequence: LRRFSTAPFAFIDINDVINF [AXT107]
- Tie2 phosphorylation (Tie2; AXT107 (0-100 μM) in combination with 200 ng/ml Ang2): significant, dose-dependent increase in Tie2 phosphorylation
- Influence on Ang1 activity (Tie2 phosphorylation) (Tie2; MECs on fibronectin, AXT107 then Ang1, data not shown): did not significantly influence Ang1 activity
- Phosphorylation by peptide alone (Tie2; absence of either ligand): phosphorylation was not induced by peptide alone
- Total protein levels of Tie2 and the downstream targets (Tie2; data not shown): remained unchanged
- Total level of VE-cadherin (VE-cadherin): remained unchanged
- Self-assembly in media [1]: self-assemble into peptide complexes when added to media
- STAT3 phosphorylation (STAT3): also increased

— patent publication US11674959B2, “Methods for identifying and preparing pharmaceutical agents for activating Tie1 and/or Tie2 receptors” (The Johns Hopkins University, priority 2017, dated 2023)
